In brackets after ≈: the same amount, converted by molar mass.

The values that follow come from patent US5763430A, “Method of treating a viral infection by administering a steroid compound” (priority 1995, dated 1998).

One assay concerns P. aerug. Briefly: antibiotic activity (MIC). The assay is classed as cell-based. The following applies: P. aerug; read-out: MIC. The source says:
(§1) Thus, it is possible to achieve an antimicrobial steroid with or without squalamine-like pharmacological activity.

For another assay, the system named is C. albicans. Briefly: antibiotic activity (MIC). The assay is classed as cell-based. The note with it: Candida albicans; C. albicans; read-out: MIC.
Text: as §1

The next assay deals with S. aureus. Kind of assay: antibiotic activity (MIC). The assay is classed as cell-based. The following applies: Staphylococcus aureus; S. aureus; read-out: MIC.
Text: as §1

The test system of another assay is E. coli. Briefly: antibiotic activity (MIC). The class given is cell-based. The following applies: Escherichia coli; E. coli; read-out: MIC.
Text: as §1

In assay [1] the test system is stage 59-60 Xenopus tadpole. Briefly: Xenopus tadpole assay. The note with it: in vivo.
Assay [2] concerns human microvascular cells. Kind of assay: inhibition of endothelial cell cord formation in vitro. On effect on endothelial cord formation: key: +: Inhibition of angiogenesis; -: No inhibition of angiogenesis; Toxic; *: cell rounding @ 10 µg/ml. The assay is classed as cell-based. The following applies: for minimal effective concentration: Homo sapiens, Endothelial cell, Table II, read-out: Minimum Effective Concentration, Cord Formation. The source says:
Endothelial cells have the capacity in vitro to form tubular aggregates resembling capillaries in various early stages of formation. This conversion occurs under relatively specific conditions, in which essential growth factors along with an effective substratum are provided. It has been shown that both the interaction of growth factors with the endothelial cell and its attachment to a substratum activate the NHE. The activation of this exchanger is believed to be required for subsequent morphologic transformation of the endothelial cell into a multicellular tubular structure.
To assess the effect of compounds on the cord-like structures formed by human microvascular cells when plated in the presence of VEGF (Vascular Endothelial Growth Factor) and basic fibroblast growth factor on a collagen matrix, a standard cord formation assay was used.

For `CC(C)CCC[C@@H](C)[C@H]1CC[C@H]2[C@@H]3[C@H](O)C[C@H]4C[C@@H](NCCCNCCCCN)CC[C@]4(C)[C@H]3CC[C@]12C` [Compound 371], the MIC in the assay on P. aerug was determined as 64 µg/mL (≈ 120 µM); in the assay with C. albicans it was 2 µg/mL (≈ 3.76 µM); with S. aureus it was 4 µg/mL (≈ 7.52 µM); with E. coli it was 64 µg/mL (≈ 120 µM). In addition, the “similarity of pharmacologic activity in tadpole assay” value (“similarity of pharmacologic activity” below) in assay [1] is “effects like those produced by compound 1436”.

For the compound `COC(=O)CC[C@@H](C)[C@H]1CC[C@H]2[C@@H]3[C@H](O)C[C@@H]4C[C@@H](NCCN)CC[C@]4(C)[C@H]3CC[C@]12C` [Compound 409], the MIC was 128 µg/mL (≈ 285 µM) in the assay with P. aerug, 16 µg/mL (≈ 35.7 µM) in the assay with C. albicans, 32 µg/mL (≈ 71.3 µM) with S. aureus and 64 µg/mL (≈ 143 µM) in the assay with E. coli. Also, the “similarity of pharmacologic activity” value in assay [1] was “functionally similar to compound 1437”.

For `COC(=O)CC[C@@H](C)[C@H]1CC[C@H]2[C@@H]3[C@H](O)C[C@@H]4C[C@H](NCCN)CC[C@]4(C)[C@H]3CC[C@]12C` [Compound 410], the MIC with P. aerug was 32 µg/mL (≈ 71.3 µM); with C. albicans it was 16 µg/mL (≈ 35.7 µM); in the assay with S. aureus it was 16 µg/mL (≈ 35.7 µM); with E. coli, 16 µg/mL (≈ 35.7 µM). Moreover, the “effect on endothelial cord formation” value in assay [2] (0.1 μg/ml) is recorded as “-”; in assay [2] (1.0 μg/ml), “+”; in assay [2] (10.0 μg/ml), “+”. Also, the minimal effective concentration in assay [2] worked out at 10 µg/mL. In addition, the “similarity of pharmacologic activity” value in assay [1] is reported as “functionally similar to compound 1437”.

Turning to `C[C@H](CCC(=O)O)[C@H]1CC[C@H]2[C@@H]3[C@H](O)C[C@@H]4C[C@H](NCCCNCCCCNCCCN)CC[C@]4(C)[C@H]3CC[C@]12C` [Compound 412], the MIC with P. aerug was found to be 8 µg/mL (≈ 13.9 µM); in the assay with C. albicans, 8 µg/mL (≈ 13.9 µM); in the assay with S. aureus it was 8 µg/mL (≈ 13.9 µM); with E. coli, 64 µg/mL (≈ 111 µM). Moreover, the entries for the “effect on endothelial cord formation” value in assay [2] (0.1 μg/ml), in assay [2] (1.0 μg/ml) and in assay [2] (10.0 μg/ml) were “-”, “-” and “+”, respectively. In addition, the minimal effective concentration in assay [2] is over 10 µg/mL. The “similarity of pharmacologic activity” value in assay [1] is “pharmacologic activity similar to that seen for FX 3”.

Turning to `C[C@H](CCC(=O)O)[C@H]1CC[C@H]2[C@@H]3[C@H](O)C[C@@H]4C[C@@H](NCCCNCCCCNCCCN)CC[C@]4(C)[C@H]3CC[C@]12C` [Compound 413], the MIC in the assay with P. aerug was determined as 64 µg/mL (≈ 111 µM); with C. albicans it was 32 µg/mL (≈ 55.5 µM); with S. aureus it was 8 µg/mL (≈ 13.9 µM); in the assay on E. coli, 256 µg/mL (≈ 444 µM). Moreover, the “effect on endothelial cord formation” value in assay [2] (0.1 μg/ml) is listed as “-”; in assay [2] (1.0 μg/ml), “-”; in assay [2] (10.0 μg/ml), “+”. Besides, the minimal effective concentration in assay [2] was over 10 µg/mL. The “similarity of pharmacologic activity” value in assay [1] is listed as “effects like those produced by compound 1436”.

Turning to `C[C@H](CCC(=O)O)[C@H]1CC[C@H]2[C@@H]3[C@H](O)C[C@@H]4C[C@H](NCCN)CC[C@]4(C)[C@H]3CC[C@]12C` [Compound 414], the MIC amounted to 64 µg/mL (≈ 147 µM) with P. aerug, 64 µg/mL (≈ 147 µM) in the assay with C. albicans, 32 µg/mL (≈ 73.6 µM) with S. aureus and 64 µg/mL (≈ 147 µM) in the assay on E. coli. Also, the “similarity of pharmacologic activity” value in assay [1] is on record as “potencies comparable to that of Fraction 1”.

In the case of `COC(=O)CC[C@@H](C)[C@H]1CC[C@H]2[C@@H]3CC[C@@H]4C[C@H](NCCN)CC[C@]4(C)[C@H]3C[C@H](O)[C@]12C` [Compound 416], the MIC in the assay with P. aerug was 16 to 32 µg/mL (≈ 35.7 to 71.3 µM); with C. albicans, 32 µg/mL (≈ 71.3 µM); in the assay on S. aureus, 8 µg/mL (≈ 17.8 µM); with E. coli, 8 µg/mL (≈ 17.8 µM). The “similarity of pharmacologic activity” value in assay [1] is listed as “functionally similar to compound 1437”.

Regarding `COC(=O)CC[C@@H](C)[C@H]1CC[C@H]2[C@@H]3C[C@@H](O)[C@H]4C[C@H](NCCN)CC[C@]4(C)[C@H]3CC[C@]12C` [Compound 431], the MIC with P. aerug was 128 µg/mL (≈ 285 µM); in the assay on C. albicans it was 8 µg/mL (≈ 17.8 µM); in the assay with S. aureus it was 16 µg/mL (≈ 35.7 µM); with E. coli it was 32 to 64 µg/mL (≈ 71.3 to 143 µM). Also, the “similarity of pharmacologic activity” value in assay [1] was “functionally similar to compound 1437”.

With `COC(=O)CC[C@@H](C)[C@H]1CC[C@H]2[C@@H]3C[C@@H](O)[C@H]4C[C@@H](NCCN)CC[C@]4(C)[C@H]3CC[C@]12C` [Compound 432], the minimal inhibitory concentration (MIC) in the assay with P. aerug is 64 µg/mL (≈ 143 µM); in the assay on C. albicans, 2 to 4 µg/mL (≈ 4.46 to 8.91 µM); in the assay with S. aureus, 1 µg/mL (≈ 2.23 µM); in the assay with E. coli, 8 to 16 µg/mL (≈ 17.8 to 35.7 µM). The “effect on endothelial cord formation” value in assay [2] (1.0 μg/ml) and in assay [2] (10.0 μg/ml) was “-” throughout. Further, the “similarity of pharmacologic activity” value in assay [1] was “functionally similar to compound 1437”.

For `C[C@H](CCC(=O)O)[C@H]1CC[C@H]2[C@@H]3C[C@@H](O)[C@H]4C[C@@H](NCCN)CC[C@]4(C)[C@H]3CC[C@]12C` [Compound 433], the MIC with P. aerug is 128 µg/mL (≈ 294 µM); with C. albicans it was over 256 µg/mL; with S. aureus, over 256 µg/mL; in the assay with E. coli, over 256 µg/mL. The “similarity of pharmacologic activity” value in assay [1] is given as “functionally similar to compound 1437”.

With `COC(=O)CC[C@@H](C)[C@H]1CC[C@H]2[C@@H]3CC[C@H]4C[C@H](NCCCNCCCCNCCCN)CC[C@]4(C)[C@H]3CC[C@]12C` [Compound 458], the minimal inhibitory concentration (MIC) in the assay with P. aerug stood at 64 µg/mL (≈ 111 µM); in the assay with C. albicans, 2 µg/mL (≈ 3.48 µM); with S. aureus, 4 µg/mL (≈ 6.96 µM); in the assay on E. coli, 32 µg/mL (≈ 55.7 µM). The “similarity of pharmacologic activity” value in assay [1] is on record as “pharmacologic activity similar to that seen for FX 3”.

Consider `COC(=O)CC[C@@H](C)[C@H]1CC[C@H]2[C@@H]3CC[C@H]4C[C@@H](NCCCNCCCCNCCCN)CC[C@]4(C)[C@H]3CC[C@]12C` [Compound 459], for which the MIC was 64 µg/mL (≈ 111 µM) in the assay with P. aerug, 2 µg/mL (≈ 3.48 µM) in the assay on C. albicans, 1 to 2 µg/mL (≈ 1.74 to 3.48 µM) in the assay with S. aureus and 32 µg/mL (≈ 55.7 µM) with E. coli. Besides, the “similarity of pharmacologic activity” value in assay [1] is “pharmacologic activity similar to that seen for FX 3”.

Turning to `COC(=O)CC[C@@H](C)[C@H]1CC[C@H]2[C@@H]3C[C@@H](O)[C@H]4C[C@H](NCCCNCCCCNCCCN)CC[C@]4(C)[C@H]3CC[C@]12C` [Compound 465], the MIC was 128 µg/mL (≈ 217 µM) in the assay with P. aerug, 4 µg/mL (≈ 6.77 µM) in the assay on C. albicans, 2 to 4 µg/mL (≈ 3.38 to 6.77 µM) in the assay on S. aureus and 32 µg/mL (≈ 54.2 µM) in the assay with E. coli. The “similarity of pharmacologic activity” value in assay [1] is “pharmacologic activity similar to that seen for FX 3”.

As to `COC(=O)CC[C@@H](C)[C@H]1CC[C@H]2[C@@H]3C[C@@H](O)[C@H]4C[C@@H](NCCCNCCCCNCCCN)CC[C@]4(C)[C@H]3CC[C@]12C` [Compound 466], the MIC in the assay with P. aerug was 32 µg/mL (≈ 54.2 µM); with C. albicans it was 2 µg/mL (≈ 3.38 µM); with S. aureus it was 2 µg/mL (≈ 3.38 µM); in the assay with E. coli it was 32 µg/mL (≈ 54.2 µM). The “similarity of pharmacologic activity” value in assay [1] was “pharmacologic activity similar to that seen for FX 3”.

As to `CC(C)CCC[C@@H](C)[C@H]1CC[C@H]2[C@@H]3[C@H](O)C[C@H]4C[C@H](N)CC[C@]4(C)[C@H]3CC[C@]12C` [Compound 1363], the MIC in the assay with P. aerug is over 256 µg/mL; in the assay with C. albicans it was 2 µg/mL (≈ 4.95 µM); in the assay with S. aureus it was 2 µg/mL (≈ 4.95 µM); in the assay on E. coli, over 256 µg/mL. For the same compound, the “similarity of pharmacologic activity” value in assay [1] was “potencies comparable to that of Fraction 1”.

As a reminder, the MIC is the lowest concentration that inhibits growth of the organism.
